Results on 26 compounds are retold here after PubChem BioAssay AID262 (DTP/NCI, 2004).

For the assay, the system named is LX-1 lung xenograft sc, nude mice, tumor weight. Nature of the assay: NCI In Vivo Anticancer Drug Screen. Data for tumor model Human Lung LX-1 Xenograft (subcutaneous) in NU/NU Swiss (nude) mice. To be noted: endpoint: optimum tumor weight change, schedule: Q04DX003 (ip), higher = larger tumour. How it is done: The antitumor activity of compounds was measured in mice bearing transplantable tumors. Survival or tumor size were measured and the results are expressed as the measurement made in the treated group (T) divided by the measurement made in the vehicle treated control group (C). The tumor model used in this assay is Human Lung LX-1 Xenograft (subcutaneous) in NU/NU Swiss (nude) mice

Setting [1] is: dose: 25.0 mg/kg/injection, vehicle: Klucel (hydroxypropylcellulose) (HPC).
[2] abbreviates: dose: 50.0 mg/kg/injection, vehicle: Klucel (hydroxypropylcellulose) (HPC).
Where [3] appears, read: dose: 100.0 mg/kg/injection, vehicle: Klucel (hydroxypropylcellulose) (HPC).
The mark [4] stands for this setting: dose: 25.0 mg/kg/injection, vehicle: saline.
[5] abbreviates: dose: 200.0 mg/kg/injection, vehicle: saline with Tween-80.
[6] abbreviates: dose: 400.0 mg/kg/injection, vehicle: saline with Tween-80.
Where [7] appears, read: dose: 5.0 mg/kg/injection, vehicle: Klucel (hydroxypropylcellulose) (HPC).
The mark [8] stands for this setting: dose: 10.0 mg/kg/injection, vehicle: Klucel (hydroxypropylcellulose) (HPC).
The mark [9] stands for this setting: dose: 100.0 mg/kg/injection, vehicle: saline with Tween-80.
Where [10] appears, read: dose: 200.0 mg/kg/injection, vehicle: suspension in saline.
The mark [11] stands for this setting: dose: 400.0 mg/kg/injection, vehicle: suspension in saline.
Setting [12] is: dose: 6.25 mg/kg/injection, vehicle: saline with Tween-80.

Several values for one entry are separate records, joined by “and”; a condition that tells them apart may be missing. Equal values may be shown once.

With `CCOC(=O)C1C2OC(=O)C(C(=O)C2CN(CCCl)CCCl)C1C1CC=C(CC2=CCC(C3C4C(=O)OC(C(CN(CCCl)CCCl)C4=O)C3C(=O)OCC)CC2)CC1` (stereo not given), the T/C under setting [1] was 58 % of control, the T/C under setting [2] was 64 % of control and the T/C under setting [3] is 55 % of control.

For the compound `CNC(=O)ON(C(C)=O)C(=O)NC`, the T/C is, setting by setting: (dose: 12.5 mg/kg/injection, vehicle: saline) 94 % of control; under setting [4], 103 % of control; (dose: 50.0 mg/kg/injection, vehicle: saline) 71 % of control; (dose: 100.0 mg/kg/injection, vehicle: saline) 60 % of control.

In the case of `NC(=S)N/N=C/c1ccc(O)cn1`, the T/C runs as follows: under setting [5], 64 % of control; under setting [6], 76 % of control.

For the compound `CS(=O)(=O)OCCN(CCOS(C)(=O)=O)c1ccc(C=Nc2ccc(-c3csc(COc4ccccc4)n3)cc2)cc1`, the T/C under setting [3] was 82 % of control.

Turning to `OCC1OC(n2cnc3cncnc32)C(O)C1O` (stereo not given), the T/C under setting [4] was 83 % of control.

On to `CC1CCC(NC(=O)N(CCCl)N=O)CC1` (stereo not given), for which the T/C was 73 % of control under setting [7] and 32 % of control under setting [8].

Turning to `Cc1c(CNc2ccc(C(=O)NC(CC(=O)O)C(=O)O)cc2)ccc2nc(N)nc(N)c12` (stereo not given), the T/C (dose: 6.0 mg/kg/injection, vehicle: saline with Tween-80) was 63 % of control; the T/C (dose: 12.0 mg/kg/injection, vehicle: saline with Tween-80) is 94 % of control; the T/C (dose: 24.0 mg/kg/injection, vehicle: saline with Tween-80) is 81 % of control.

With `COC1C(C)OC(OC2CC(C)(O)Cc3cc4c(c(O)c32)C(=O)c2c(O)cc3c(c2C4=O)OC2OC3(C)C(O)C(N(C)C)C2O)C(OC)C1(C)OC` (stereo not given), the T/C is 69 % of control (dose: 2.5 mg/kg/injection, vehicle: Klucel (hydroxypropylcellulose) (HPC)); 75 % of control under setting [7]; 56 % of control under setting [8]; 38 % of control (dose: 20.0 mg/kg/injection, vehicle: Klucel (hydroxypropylcellulose) (HPC)).

With `N[C@@H](Cc1ccc(N(CCCl)CCCl)cc1)C(=O)O`, the T/C (dose: 4.0 mg/kg/injection, vehicle: suspension in saline) was 81 % of control and 87 % of control; the T/C (dose: 8.0 mg/kg/injection, vehicle: suspension in saline) is 56 % of control.

Take `CCN(C)N=Nc1ccc(C(N)=O)cc1`: the T/C under setting [1] is 67 % of control; the T/C under setting [2] is 9 % of control; the T/C (dose: 200.0 mg/kg/injection, vehicle: Klucel (hydroxypropylcellulose) (HPC)) was -60 % of control.

Turning to `NC(Cc1ccc(N(CCCl)CCCl)cc1)C(=O)O` (stereo not given), the T/C under setting [7] is 66 % of control.

For `CC(=O)Oc1ccc[nH]c1=O`, the T/C (dose: 50.0 mg/kg/injection, vehicle: saline with Tween-80) is 91 % of control; the T/C under setting [9] is 81 % of control; the T/C under setting [6] is 76 % of control; the T/C (dose: 800.0 mg/kg/injection, vehicle: saline with Tween-80) was 73 % of control.

As to `ClCC[N+]12CC[N+](CCCl)(CC1)C2`, the T/C was 81 % of control (dose: 50.0 mg/kg/injection, vehicle: water); 103 % of control under setting [9]; 106 % of control (dose: 100.0 mg/kg/injection, vehicle: water); 72 % of control under setting [5]; 59 % of control (dose: 200.0 mg/kg/injection, vehicle: water); 74 % of control under setting [6]. For the setting “dose: 400.0 mg/kg/injection, vehicle: water”, the T/C is 48 % of control.

Regarding `CC(=O)OCC1OC(n2ccc(N)nc2=O)C(OC(C)=O)C1OC(C)=O` (stereo not given), the T/C is, setting by setting: under setting [10], 102 % of control; under setting [11], 78 % of control.

In the case of `COC(OC(CO)C(O)S(=O)(=O)O)C(O)S(=O)(=O)O` (stereo not given), the T/C is 45 % of control (dose: 200.0 mg/kg/injection, vehicle: saline); 89 % of control under setting [10]; 82 % of control under setting [11]; 41 % of control (dose: 800.0 mg/kg/injection, vehicle: suspension in saline).

Consider `CC(C)CCCCCCCCCCCCC(=O)NCC(=O)NC1C(C)OC(Nc2ncnc3nc[nH]c23)C(O)C1O` (stereo not given), for which the T/C under setting [12] is 34 % of control.

As for `O=NN(CCCl)C(=O)NC1CCC(=O)NC1=O` (stereo not given), the T/C (dose: 5.0 mg/kg/injection, vehicle: saline with Tween-80) was 49 % of control.

On to `Nc1nc(N)c2cc(CNc3ccc(C(=O)NC(CC(=O)O)CC(=O)O)cc3)ccc2n1`, for which the T/C was 66 % of control (dose: 6.25 mg/kg/injection, vehicle: Klucel (hydroxypropylcellulose) (HPC)); 71 % of control (dose: 12.5 mg/kg/injection, vehicle: Klucel (hydroxypropylcellulose) (HPC)); 78 % of control under setting [1].

For `Cc1c(N)nc([C@H](CC(N)=O)NC[C@H](N)C(N)=O)nc1C(=O)N[C@H](C(=O)N[C@H](C)[C@@H](O)CC(=O)N[C@H](C(=O)NC(O[C@@H]1O[C@@H](C)[C@@H](N)[C@@H](O)[C@H]1O)C(O)c1nc(-c2nc(C(=O)NCCCCN)cs2)cs1)[C@@H](C)O)[C@@H](O[C@@H]1O[C@@H](CO)[C@@H](O)[C@H](O)[C@@H]1O[C@H]1O[C@H](CO)[C@@H](O)[C@H](OC(N)=O)[C@@H]1O)c1c[nH]cn1` (stereo not given in full), the T/C (dose: 2.0 mg/kg/injection, vehicle: saline) is 77 % of control.

For the compound `CC(=O)OCC(=O)[C@@]12OC(C)(C)O[C@@H]1C[C@H]1[C@@H]3CC(C=O)=C4C=C(OCCCl)CC[C@]4(C)[C@@]3(F)[C@@H](O)C[C@@]12C`, the T/C under setting [1] is 96 % of control and the T/C under setting [2] was 106 % of control.

With `O=C1N(Cl)C(=O)C(c2ccc(Cl)cc2)(c2ccc(Cl)cc2)N1Cl`, the T/C reads like this: under setting [9], 66 % of control; under setting [5], 42 % of control.

On to `CO[C@H]1C[C@](C)(O)Cc2cc3c(c(O)c21)C(=O)c1c(O)cc2c(c1C3=O)O[C@@H]1O[C@@]2(C)[C@H](O)[C@@H](N(C)C)[C@@H]1O`, for which the T/C was 53 % of control (dose: 6.25 mg/kg/injection, vehicle: other) and 114 % of control (dose: 12.5 mg/kg/injection, vehicle: other).

As for `O=C(O)CP(=O)(O)O`, the T/C by setting is: (dose: 400.0 mg/kg/injection, vehicle: saline) 98 % of control; (dose: 800.0 mg/kg/injection, vehicle: saline) 90 % of control; (dose: 1600.0 mg/kg/injection, vehicle: saline) 75 % of control.

As to `NC(=O)c1ccc[n+](Cc2c(Cl)cccc2Cl)c1`, the T/C (dose: 24.0 mg/kg/injection, vehicle: saline) is 47 % of control and the T/C (dose: 48.0 mg/kg/injection, vehicle: saline) was 68 % of control.

With `Cc1c(N)nc(C(CC(N)=O)NCC(N)C(N)=O)nc1C(=O)NC(C(=O)NC(C)C(O)CC(=O)NC(C(=O)NC(OC1OC(C)C(N)C(O)C1O)C(O)c1nc(-c2nc(C(=O)NCCCC(N)CC(=O)NCCCNCCCCN)cs2)cs1)C(C)O)C(OC1OC(CO)C(O)C(O)C1OC1OC(CO)C(O)C(OC(N)=O)C1O)c1cnc[nH]1` (stereo not given), the T/C (dose: 4.0 mg/kg/injection, vehicle: saline) is 52 % of control and the T/C (dose: 8.0 mg/kg/injection, vehicle: saline) was 23 % of control.

As for `O=C/C(Cl)=C(/Cl)C(=O)O`, the T/C is, setting by setting: (dose: 3.13 mg/kg/injection, vehicle: saline with Tween-80) 112 % of control; under setting [12], 84 % of control; (dose: 12.5 mg/kg/injection, vehicle: saline with Tween-80) 71 % of control.
